From ChEMBL document CHEMBL3797093, “Optimization of amide-based EP3 receptor antagonists” (Bioorg Med Chem Lett, 2016)

Assays:
[1] = Apparent intrinsic clearance in human liver microsomes in presence of NADPH; format: ADME; details: read-out: CLH(app)
Hepatocyte [2] = assay: Drug level in human hepatocytes treated with GSK; format: ADME, cell-based
Hepatocyte [3] = assay: Drug metabolism in human hepatocytes assessed as N-(5-(2,6-dichlorophenyl)-1,3,4-thiadiazol-2-yl)-4-(2-hydroxyethyl)-3,4-dihydro-2H-benzo[b][1,4]oxazine-6-carboxamide formation; format: ADME, cell-based
Hepatocyte [4] = assay: Drug metabolism in human hepatocytes assessed as N-(5-(2,6-dichlorophenyl)-1,3,4-thiadiazol-2-yl)-3-(ethylamino)-4-hydroxybenzamide formation; format: ADME, cell-based
[5] = Intrinsic clearance in human hepatocytes; format: ADME, cell-based, Hepatocyte; details: read-out: CLH
Hepatocyte [6] = assay: Drug metabolism in human hepatocytes assessed as 4-ethyl-3,4-dihydro-2H-benzo[b][1,4]oxazine-6-carboxylic acid formation; format: ADME, cell-based

Compound	microsomal CLint [1]	other results
Cn1ncc2ncc(C(=O)Nc3nnc(C4CC4)s3)cc21	< 8 µL/min/mg	
CCn1ncc2c(F)cc(C(=O)Nc3nnc(C4(C)CCN(C(=O)C(C)(C)O)CC4)s3)cc21	20 µL/min/mg	
CC(C)n1ncc2ccc(C(=O)Nc3nnc(C4CC4)s3)cc21	13.2 µL/min/mg	
CCn1ncc2c(F)cc(C(=O)Nc3nnc(C4(C)CCN(C(C)=O)CC4)s3)cc21	< 8.6 µL/min/mg	
CCn1ncc2c(F)cc(C(=O)Nc3nnc(C4(C)CCN(C(=O)C(C)O)CC4)s3)cc21 (racemic)	< 8 µL/min/mg	
CCn1ncc2ccc(C(=O)Nc3nnc(C4CC4)s3)cc21	< 8 µL/min/mg	
CCn1ncc2c(F)cc(C(=O)Nc3nnc(C4(C)CN(C(C)=O)C4)s3)cc21	< 8 µL/min/mg	
Cn1ncc2ccc(C(=O)Nc3nnc(C4CC4)s3)cc21	< 8 µL/min/mg	
O=C(Nc1nnc(-c2c(Cl)cccc2Cl)s1)c1ccc2c(c1)N(CCO)CCO2		Drug metabolism (Hepatocyte [2]): metabolite_detected
CCN1CCOc2ccc(C(=O)Nc3nnc(C4CC4)s3)cc21	25 µL/min/mg	
CCn1ncc2c(Cl)cc(C(=O)Nc3nnc(C4CC4)s3)cc21	10.9 µL/min/mg	
CCn1ncc2c(F)cc(C(=O)Nc3nnc(C4(C)CCN(C(C)=O)C4)s3)cc21 (racemic)	< 8 µL/min/mg	
CCn1ncc2c(F)cc(C(=O)Nc3nnc(C4(C)CCN(C(=O)CO)CC4)s3)cc21	< 8 µL/min/mg	
CCn1ncc2c(F)cc(C(=O)Nc3nnc(C4CC4)s3)cc21	8.6 µL/min/mg	
CCNc1cc(C(=O)Nc2nnc(-c3c(Cl)cccc3Cl)s2)ccc1O		Drug metabolism (Hepatocyte [2]): metabolite_detected
Cn1ncc2cc(C(=O)Nc3nnc(C4CC4)s3)ccc21	21.3 µL/min/mg	
CCN1CCOc2ccc(C(=O)O)cc21		Drug metabolism (Hepatocyte [2]): metabolite_detected
CCN1CCOc2ccc(C(=O)Nc3nnc(-c4c(Cl)cccc4Cl)s3)cc21		Drug metabolism (Hepatocyte [3]): metabolite_detected; Drug metabolism (Hepatocyte [4]): metabolite_detected; CLint scaled [5]: 59 mL/min/kg; Drug metabolism (Hepatocyte [6]): metabolite_detected; CLint scaled [1]: 39 mL/min/kg
